Test results published in US20180370912A1, “COMPOUNDS AND METHODS FOR TREATING DISEASES MEDIATED BY PROTEIN DISULFIDE ISOMERASE” (Beth Israel Deaconess Medical Center, Inc., priority 2017, published 2018).

Columns and labels:
thioredoxin = target: T1, thioredoxin (Homo sapiens, UniProt P10599); assay: Insulin reductase assay, thiol isomerase selectivity; type: biochemical; conditions: 10-fold IC50, FIG. 2
T1 sequence (P10599 1-105): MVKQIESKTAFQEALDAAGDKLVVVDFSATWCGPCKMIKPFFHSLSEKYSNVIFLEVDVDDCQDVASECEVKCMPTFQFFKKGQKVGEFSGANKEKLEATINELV
Experimental: (§1) The thiol isomerase-catalyzed reduction of insulin was assayed by measuring the increase in turbidity as detected at an optical density (OD) of 650 nm using a Spectramax M3 (Molecular Devices, Sunnyvale, Calif.). The validation assay consisted of 175 nM of PDI in a solution containing 100 mM potassium phosphate (pH 7.4) containing 0.2 mM bovine insulin, 2 mM EDTA, and 0.3 mM DTT (all purchased from Sigma Aldrich, St. Louis, Mo.), inhibitors were used at the concentrations indicated. The reaction was performed at 25° C. for one hour and thirty minutes. For assays of thiol isomerase selectivity, 11 nM PDI, ERp57 or Thioredoxin, or 33 nM ERpS were assayed in similar buffer conditions as described above and inhibitors were used at the indicated concentration. The reaction was performed at 37° C. for forty-five minutes. For assays of isolated domains studies, 400 nM protein was used, except for a, a′ and ab, in which 800 nM protein was used. The assay was performed in similar buffer conditions as described above. Bepristat 2a and N-(2,4-Dimethoxyphenyl)-N-(1-oxo-2-propyn-1-yl)-2-(2-thienyl)glycyl-glycine ethyl ester (PACMA-31) were used at a final concentration of 15 μM in these studies.

ERp5 = target: T2, ERp5 (Homo sapiens, UniProt Q15084); assay: as above; type: biochemical; conditions: 10-fold IC50, FIG. 2
T2 construct: recombinant His-tagged full-length ERp5, ERp72 and PDI domain fragments; His; made in house; host or cells: Escherichia coli Origami B (DE3), pET-15b
T2 sequence (Q15084 20-440): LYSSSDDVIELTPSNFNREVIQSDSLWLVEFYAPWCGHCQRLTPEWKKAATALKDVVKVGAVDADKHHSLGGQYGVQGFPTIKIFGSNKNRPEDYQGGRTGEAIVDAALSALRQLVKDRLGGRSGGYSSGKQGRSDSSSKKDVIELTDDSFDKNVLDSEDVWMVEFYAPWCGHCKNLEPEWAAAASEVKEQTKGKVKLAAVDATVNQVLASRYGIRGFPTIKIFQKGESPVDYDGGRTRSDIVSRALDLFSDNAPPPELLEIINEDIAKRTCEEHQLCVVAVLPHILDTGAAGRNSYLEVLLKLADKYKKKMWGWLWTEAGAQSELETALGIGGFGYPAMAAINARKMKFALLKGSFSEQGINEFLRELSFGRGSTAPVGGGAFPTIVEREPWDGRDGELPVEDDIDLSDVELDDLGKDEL
Experimental: as §1

human wild-type PDI = target: T3, human wild-type PDI (Homo sapiens, UniProt P07237); assay: Redox potential determination by differential cysteine alkylation and mass spectrometry
T3 construct: FLAG; made in house; host or cells: Escherichia coli Origami B (DE3), pET-15b
T3 sequence (P07237 18-508): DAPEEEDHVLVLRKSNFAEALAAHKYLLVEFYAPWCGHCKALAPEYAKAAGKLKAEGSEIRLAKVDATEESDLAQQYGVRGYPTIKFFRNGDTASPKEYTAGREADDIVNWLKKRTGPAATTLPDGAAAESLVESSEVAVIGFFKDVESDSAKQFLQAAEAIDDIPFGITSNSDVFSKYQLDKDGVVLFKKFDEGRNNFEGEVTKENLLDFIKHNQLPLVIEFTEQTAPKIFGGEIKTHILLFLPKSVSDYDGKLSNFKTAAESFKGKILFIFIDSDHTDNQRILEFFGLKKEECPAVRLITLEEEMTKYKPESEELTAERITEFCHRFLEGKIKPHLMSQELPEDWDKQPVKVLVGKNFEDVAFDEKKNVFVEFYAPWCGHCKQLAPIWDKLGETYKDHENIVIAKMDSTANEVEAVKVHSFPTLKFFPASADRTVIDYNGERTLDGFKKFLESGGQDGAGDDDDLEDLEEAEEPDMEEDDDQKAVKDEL
Experimental: The redox potentials of the a (Cys53-Cys56) and a′ (Cys397-Cys400) active-site dithiols/disulfides of human wild-type PDI in the absence or presence of bepristat 2b were determined by differential cysteine alkylation and mass spectrometry. Recombinant PDI (5 μM) was incubated in the absence or presence of bepristat 2b (50 μM) in argon-flushed phosphate-buffered saline containing 0.1 mM EDTA, 0.2 mM oxidized glutathione (GSSG, Sigma) and various concentrations of reduced glutathione (GSH, Sigma) for 18 h at room temperature. Microcentrifuge tubes were flushed with argon prior to sealing to prevent oxidation by ambient air during the incubation period. […]
The fraction of reduced active-site disulfide bond was measured from the relative ion abundance of peptides containing ^12C-IPA and ^13C-IPA. […] The area was calculated using the automated peak detection function built into the software. […] The results were expressed as the ratio of reduced to oxidized protein and fitted to equation 1: […]
where R is the fraction of reduced protein at equilibrium, B is the baseline fraction of the cysteine in the population that is in the reduced state and Keq is the equilibrium constant. The standard redox potential (E^0′) of the PDI active-site disulfides were calculated using the Nernst equation (equation 2): […]

inhibition of reductase activity of thioredoxin (thioredoxin) | inhibition of reductase activity of ERp5 (ERp5) | SMILES | active site disulfide bond formation under equilibrium conditions (human wild-type PDI)
demonstrated inhibitory activity | demonstrated inhibitory activity | C#CC(=O)N(c1ccc(OC)cc1OC)C(C(=O)NCC(=O)OCC)c1cccs1 (stereo not drawn) [PACMA-31, N-(2,4-Dimethoxyphenyl)-N-(1-oxo-2-propyn-1-yl)-2-(2-thienyl)glycyl-glycine ethyl ester, reference compound] | 
 |  | CCOC(=O)c1c(CNCCN(CC)CC)n(-c2ccccc2)c2cc(Br)c(O)cc12 [bepristat 2a] | impairs active site disulfide bond formation
